Test system: A549 human adenocarcinoma tumor cells
Test: Microtubule bundling patterns in tumor cells by immunofluorescence
Assay type: cell-based
Design: key to Microtubule bundling in A549 cells: −: no effect; +/−: minimal or questionable effect; +: weak effect; ++: strong effect; +++: very strong effect equivalent to discodermolide
Conditions: for Microtubule bundling in A549 cells: subjective rating versus discodermolide
Procedure: Discodermolide and discodermolide analogs were evaluated as to their effects on the morphology of the microtubule network of cells using mouse anti-alpha-tubulin monoclonal antibody.
On day one, 7×10^4 adherent A549 human adenocarcinoma tumor cells were cultured in TCM overnight at 37° C. in 5% CO2 on 22 mm^2 cover slips in 6-well microtiter plates. On day two, TCM was removed and replaced with 10-1000 nM discodermolide or analog in TCM or TCM without drug (control) and incubated overnight at 37° C. in 5% CO2. On day three, TCM was removed and cells attached to cover slips were fixed with a 3.7% formaldehyde solution in Dulbecco's PBS for 10 minutes at room temperature. Cells were permeabilized with a 2% Triton X-100 solution, 2 mL per well, for 5 minutes at room temperature and washed twice in Dulbecco's PBS prior to staining.
To each well containing cells attached to cover slips a 2 mL volume of mouse anti- alpha-tubulin monoclonal antibody (Cat# T-5168, Sigma Chemical Co., St. Louis, Mo.) diluted 1:1000 in Dulbecco's phosphate buffered saline (D-PBS) was added and the cells incubated at room temperature for 45 minutes. Cover slips were rinsed once with D-PBS. A 2 mL volume of goat-anti-mouse-IgG-FITC conjugated antibody (Cat# T-5262, Sigma Chemical Co., St. Louis, Mo.) diluted 1:1000 in D-PBS was added and the cells incubated at room temperature for 45 minutes. Cover slips were rinsed once in D-PBS and DNA was stained with 0.02 mg/mL propidium iodide together with 0.1 mg/mL of ribonuclease A (RNAse) A in D-PBS at 37° C. for 30 minutes. Cover slips were rinsed three times with sterile distilled water, air-dried and mounted on slides with SlowFade™ antifade solution (Molecular Probes, Eugene, Oreg.) and observed under the microscope using epifluorescence illumination for the presence of abnormal aster and microtubule bundle formations.

## C=CC=CC(C)C(OC(N)=O)C(C)C(O)C(C)CC(C)=CC(C)C(O)C(C)C=CC(O)CC1OC(=O)CC(O)C1C (stereo not drawn) [2-Desmethyldiscodermolide (II), 2-desmethyldiscodermolide]
100 nM
  Microtubule bundling observation: Some thin or short peripheral microtubule bundling
1000 nM
  Microtubule bundling observation: extensive microtubule bundling
Analog at 100 nM
  Discodermolide concentration giving equivalent morphological changes: 20-50 nM
Analog at 1000 nM
  Discodermolide concentration giving equivalent morphological changes: 1000 nM
Table 11
  Microtubule bundling in A549 cells: +++

## C=C/C=C\[C@H](C)[C@H](OC(N)=O)[C@@H](C)[C@H](O)[C@@H](C)C/C(C)=C\[C@H](C)[C@@H](O)[C@@H](C)/C=C\[C@@H](O)C[C@@H]1OC(=O)[C@@H](C)[C@@H](O)[C@H]1C [2-Epidiscodermolide (IV), 2-epidiscodermolide]
100 nM
  Cells with multiple aster formations, share of the population undergoing mitosis: less than 10%
  Microtubule bundling observation: no microtubule matrix bundling
1000 nM
  Microtubule bundling observation: Some minor, peripheral, polymerization of microtubule matrix
Analog at 1000 nM
  Discodermolide concentration giving equivalent morphological changes: ~20 nM
Table 11
  Microtubule bundling in A549 cells: +

## CCCCC(C)C(OC(N)=O)C(C)C(O)C(C)CC(C)=CC(C)C(O)C(C)CCCCC1OC(=O)C(C)C(O)C1C (stereo not drawn) [7-deoxy-8,21,23-hexahydrodiscodermolide]
10 nM
  Microtubule bundling observation: no visible effect on the microtubule matrix
100 nM
  Microtubule bundling observation: small amount of microtubule bundling visible in some cells
1000 nM
  Microtubule bundling observation: strong microtubule bundling
Analog at 100 nM
  Discodermolide concentration giving equivalent morphological changes: ~10 nM
Analog at 1000 nM
  Discodermolide concentration giving equivalent morphological changes: 100 nM
Table 12
  Microtubule bundling in A549 cells: ++

## CCCCC(C)C(OC(N)=O)C(C)C(O)C(C)CC(C)=CC(C)C(O)C(C)CCC(O)CC1OC(=O)C(C)C(O)C1C (stereo not drawn) [8,21,23-Hexahydrodiscodermolide (XII), 8,21,23-hexahydrodiscodermolide]
100 nM
  Microtubule bundling observation: Microtubule bundling was evident
1000 nM
  Microtubule bundling observation: Microtubule bundling was evident
Table 12
  Microtubule bundling in A549 cells: ++

## C=CC=CC(C)C(O)C(C)C(O)C(C)CC(C)=CC(C)C(O)C(C)C=CC(O)CC1OC(=O)C(C)C(O)C1C (stereo not drawn) [19-Desaminocarbonyldiscodermolide (III), 19-desaminocarbonyldiscodermolide]
100 nM
  Microtubule bundling observation: some microtubule bundling
1000 nM
  Microtubule bundling observation: moderate amount of microtubule bundling
Analog at 100 nM
  Discodermolide concentration giving equivalent morphological changes: 10-20 nM
Analog at 1000 nM
  Discodermolide concentration giving equivalent morphological changes: 50-100 nM
Table 11
  Microtubule bundling in A549 cells: ++
